Values joined by “and” are separate entries in the source; they are usually repeats but may differ in a detail not shown here. Equal values may be shown once. Read-outs that look alike come from different tables or passages of the source. Numbered stars: 1 amine (or outer) side, 2 acyl side, 3 side chain; on linkers, the order of the positions; unused ones are H or OH. Bridge positions count the residues as written; N and C are the ends. Square brackets hold non-standard residues; d marks the D form. Peptide text beside a SMILES is read from it. I, II: the chains in the order shown. Actinocin(9to1) = Cc1c2oc3c(C)ccc(C(=O)[*:1])c3nc-2c(C(=O)[*:2])c(N)c1=O; NMeV = CN[C@H](C(=O)O)C(C)C; Sar = CNCC(=O)O
Tests used:
[1] = assay type: in vivo, mice; conditions: for Liver concentration / Brain peak area / Kidney concentration: WT mice, 0.5 mg/kg i.v., per gram of tissue
MDCKII-WT cells [2] = test: Fluorescence competition assay with ABCB1 substrate doxorubicin; assay type: cell-based, canine; conditions: 1 h pre-incubation, doxorubicin 10 μM 1 h
MDCKII-ABCC2 cells [3] = test: Cellular efflux of Act D after 4 h uptake; assay type: in vitro ADME, canine
in vivo = assay type: in vivo, mice; conditions: for Cmax / Tmax / half-life: mouse, in vivo, iv
MDCKII-ABCB1 cells [4] = test: Intracellular accumulation of Act D; assay type: in vitro ADME, canine
MDCKII-ABCB1 cells [5] = test: Fluorescence competition assay with ABCB1 substrate doxorubicin; assay type: cell-based, canine; conditions: MDCKII-ABCB1, 1 h pre-incubation, doxorubicin 10 μM 1 h
MDCKII-ABCG2 cells = test: Cellular efflux of Act D after 4 h uptake; assay type: in vitro ADME, canine; conditions: MDCKII-ABCG2, not statistically significant
MDCKII-ABCC1 cells [6] = test: Intracellular accumulation of Act D; assay type: in vitro ADME, canine
[7] = paediatric patient population; cited from earlier work
[8] = Act D treatment; cited from earlier work
MDCKII-ABCC2 cells [9] = test: Growth inhibition; assay type: cell-based, canine; conditions: MDCKII-ABCC2, MK571 25 μM, p = 0.23
ABCB1 (MDR1) = test: Growth inhibition; conditions: dog, 72 h
MDCKII-ABCB1 cells [10] = test: Growth inhibition
MDCKII-ABCC1 cells [11] = test: Growth inhibition; assay type: cell-based, canine; conditions: MDCKII-ABCC1, MK571 25 μM
MDCKII-WT cells [12] = test: Intracellular accumulation of Act D; assay type: in vitro ADME, canine; conditions: 0.01 μM Act D, 12 h
MDCKII-ABCC1 cells [13] = test: Cellular efflux of Act D after 4 h uptake; assay type: in vitro ADME, canine; conditions: MDCKII-ABCC1, after 4 h with 0.1 μM Act D
[14] = Abcb1a/1b−/− knockout (parental strain FVB), 0.5 mg/kg
[15] = Abcc2−/− knockout (parental strain FVB), 0.5 mg/kg
[16] = Abcc2−/− mice, 0.5 mg/kg i.v., 0.5 mg/kg
[17] = WT mice, 0.5 mg/kg i.v., 0.5 mg/kg

## Cc1c2oc3c(C)ccc(C(=O)N[C@@H]4C(=O)N[C@H](C(C)C)C(=O)N5CCC[C@H]5C(=O)N(C)CC(=O)N(C)[C@@H](C(C)C)C(=O)O[C@@H]4C)c3nc-2c(C(=O)N[C@@H]2C(=O)N[C@H](C(C)C)C(=O)N3CCC[C@H]3C(=O)N(C)CC(=O)N(C)[C@@H](C(C)C)C(=O)O[C@@H]2C)c(N)c1=O [Act D, actinomycin D] (I: T[dV]P[Sar][NMeV] / II: T[dV]P[Sar][NMeV]; ester I:1-I:C, II:1-II:C; linker I:N-II:N via Actinocin(9to1))
[1]; 0.5 h
  Liver concentration: 1593 ± 167 µg/L
[1]; 2 h
  Brain peak area: 501 ± 28.9 pa
  Kidney concentration: 4693 ± 415 µg/L
  Liver concentration: 747 ± 165 µg/L
[1]; 6 h
  Brain peak area: 309 ± 156 pa
  Kidney concentration: 1970 ± 150 µg/L
  Liver concentration: 287 ± 40 µg/L
[1]; irrespective of transporter knockout genotype
  Act D accumulation over 6 h in the kidneys higher than the liver: 6.6- to 7.7 fold
MDCKII-WT cells [2]
  Act D concentration at which intracellular doxorubicin levels plateaued: 0.1 to 1 µM
MDCKII-ABCC2 cells [3]; MDCKII-ABCC2, after 4 h with 0.1 μM Act D
  reduction in intracellular Act D over 2 h after drug removal: 2.1 fold
MDCKII-ABCC2 cells [3]; MDCKII-ABCC2, compared to parental cell line
  reduction in intracellular Act D over 1 h after drug removal: 1.8 fold
In vivo; 0.5 mg/kg i.v.
  greater plasma AUC0–∞ in Abcb1a/1b−/− mice compared to WT: 1.9 fold
  higher plasma AUC0–6 h in Abcb1a/1b−/− mice compared to WT: 1.6 fold
  higher plasma Cmax at 15 min in Abcb1a/1b−/− mice compared to WT: 1.4 fold
  higher plasma concentration at 30 min in Abcb1a/1b−/− mice compared to WT: 1.7 fold
  longer elimination half-life (t1/2) in Abcb1a/1b−/− mice compared to WT: 1.5 fold
In vivo; [14]
  Cmax: 96.7 ± 12 ng/mL
  Tmax: 0.25 h
  half-life: 2.78 h
In vivo; Abcb1a/1b−/− mice, 0.5 mg/kg i.v., 0.5 mg/kg
  plasma AUC0–∞: 322.6 ng·h/mL
In vivo; Abcb1a/1b−/− mice, 0.25 h, 0.5 mg/kg i.v.
  Act D plasma concentration: 96.7 ± 12.0 µg/L
In vivo; Abcb1a/1b−/− mice, 0.5 h, 0.5 mg/kg i.v., 0.5 mg/kg
  Act D plasma concentration: 71.6 µg/L and 71.6 ± 12.3 µg/L
In vivo; Abcb1a/1b−/− mice, 2 h, 0.5 mg/kg i.v.
  Act D plasma concentration: 35.8 ± 2.01 µg/L
In vivo; Abcb1a/1b−/− mice, 6 h, 0.5 mg/kg i.v.
  Act D plasma concentration: 20.1 ± 0.78 µg/L
In vivo; Abcc2−/− knockout (FVB background), 0.5 mg/kg
  half-life: 2.46 h
In vivo; [15]
  Cmax: 48 ± 11.1 ng/mL
  Tmax: 0.25 h
In vivo; [16]
  plasma AUC0–6 h: 114.8 ng·h/mL
  plasma AUC0–∞: 145.2 ng·h/mL
In vivo; Abcc2−/− mice, 0.25 h, 0.5 mg/kg i.v.
  Act D plasma concentration: 48.0 ± 11.1 µg/L
In vivo; Abcc2−/− mice, 0.5 h, 0.5 mg/kg i.v.
  Act D plasma concentration: 37.7 ± 6.07 µg/L
In vivo; Abcc2−/− mice, 2 h, 0.5 mg/kg i.v.
  Act D plasma concentration: 16.3 ± 3.73 µg/L
In vivo; Abcc2−/− mice, 6 h, 0.5 mg/kg i.v.
  Act D plasma concentration: 8.6 ± 0.96 µg/L
In vivo; FVB (wild type), 0.5 mg/kg
  Cmax: 68.6 ± 15.6 ng/mL
  Tmax: 0.25 h
  half-life: 1.92 h
In vivo; [17]
  plasma AUC0–6 h: 151.5 ng·h/mL
  plasma AUC0–∞: 168.1 ng·h/mL
In vivo; WT mice, 0.25 h, 0.5 mg/kg i.v.
  Act D plasma concentration: 68.6 ± 15.6 µg/L
In vivo; WT mice, 0.5 h, 0.5 mg/kg i.v., 0.5 mg/kg
  Act D plasma concentration: 43.3 µg/L and 43.3 ± 7.68 µg/L
In vivo; WT mice, 2 h, 0.5 mg/kg i.v.
  Act D plasma concentration: 25.8 ± 4.78 µg/L
In vivo; WT mice, 6 h, 0.5 mg/kg i.v.
  Act D plasma concentration: 6.0 ± 0.65 µg/L
MDCKII-ABCB1 cells [4]; MDCKII-ABCB1, 0.01 μM Act D, 12 h
  intracellular accumulation of Act D: 0.1 nM
MDCKII-ABCB1 cells [4]; MDCKII-ABCB1, 10 μM verapamil, 0.1 μM Act D, 4 h
  increase in intracellular Act D with verapamil: 7.9 fold
MDCKII-ABCB1 cells [4]; MDCKII-ABCB1 vs MDCKII-WT, 0.01 μM Act D, 12 h
  lower accumulation of Act D compared to parental cell line: 9.8 fold
MDCKII-ABCB1 cells [5]
  Act D concentration required to maximally inhibit doxorubicin efflux: 1 to 25 µM
MDCKII-ABCG2 cells
  higher intracellular Act D after 2 h: 1.5 fold
MDCKII-ABCC1 cells [6]; MDCKII-ABCC1, not statistically significant
  increased accumulation with MK571 compared to absence of inhibitor: 1.2 fold
MDCKII-ABCC1 cells [6]; MDCKII-ABCC1 vs MDCKII-WT, 12 h
  lower accumulation of Act D compared to parental cell line: 2.5 fold and 2.45 fold
[7]
  range in AUC0–6 h between patients: > 4 fold
[8]
  incidence of liver toxicities: 1.7–13.5 % of cases
MDCKII-ABCC2 cells [9]
  effect of MK571 on sensitivity to Act D: no effect
ABCB1 (MDR1); GI50, MDCKII-ABCB1, + verapamil (1 μM)
  GI50 at 72 h: 0.129 µM
ABCB1 (MDR1); GI50, MDCKII-ABCB1, Act D alone
  GI50 at 72 h: 0.745 µM
MDCKII-ABCB1 cells [10]; MDCKII-ABCB1, verapamil 1 μM, 72 h
  decrease in GI50 with verapamil: 6 fold
MDCKII-ABCB1 cells [10]; MDCKII-ABCB1 less sensitive than parental
  difference in GI50 between MDCKII-WT and MDCKII-ABCB1: 59 fold
MDCKII-ABCC1 cells [11]
  increase in sensitivity to Act D with MK571: greater than 4 fold
MDCKII-WT cells [12]
  intracellular accumulation of Act D: 0.98 nM
MDCKII-ABCC1 cells [13]
  reduction in intracellular Act D over 2 h after drug removal: 1.9 fold

— PMC3545186 (Biochemical Pharmacology, 2013)
